Results published in the NIST ThermoML archive (doi:10.1016/j.fluid.2017.12.010).
± gives the expanded uncertainty stated by the source.

Assay: xn = mol fraction of the nth substance listed
Details: Liquid, Vibrating tube method

CCCCCCCCCCCC [dodecane] + CCCCCCCCCC
mass density (283.29 K, 100 kPa, x2 = 0): 756 ± 3 kg/m3
mass density (283.29 K, 1000 kPa, x2 = 0): 757 ± 3 kg/m3
mass density (283.29 K, 3000 kPa, x2 = 0): 758 ± 3 kg/m3
mass density (283.3 K, 5000 kPa, x2 = 0): 760 ± 3 kg/m3
mass density (283.3 K, 10000 kPa, x2 = 0): 763 ± 3 kg/m3
mass density (283.3 K, 30000 kPa, x2 = 0): 775 ± 3 kg/m3
mass density (283.3 K, 40000 kPa, x2 = 0): 780 ± 3 kg/m3
mass density (283.3 K, 50000 kPa, x2 = 0): 785 ± 3 kg/m3
mass density (283.3 K, 60000 kPa, x2 = 0): 790 ± 3 kg/m3
mass density (283.31 K, 20000 kPa, x2 = 0): 769 ± 3 kg/m3
mass density (283.31 K, 70000 kPa, x2 = 0): 795 ± 3 kg/m3
mass density (283.32 K, 80000 kPa, x2 = 0): 799 ± 3 kg/m3
mass density (283.32 K, 90000 kPa, x2 = 0): 803 ± 3 kg/m3
mass density (283.46 K, 100 kPa, x2 = 0.4436): 748 ± 3 kg/m3
mass density (283.47 K, 1000 kPa, x2 = 0.4436): 749 ± 3 kg/m3
mass density (283.47 K, 5000 kPa, x2 = 0.4436): 752 ± 3 kg/m3
mass density (283.48 K, 10000 kPa, x2 = 0.4436): 755 ± 3 kg/m3
mass density (283.48 K, 20000 kPa, x2 = 0.4436): 762 ± 3 kg/m3
mass density (283.48 K, 40000 kPa, x2 = 0.4436): 773 ± 3 kg/m3
mass density (283.49 K, 30000 kPa, x2 = 0.4436): 767 ± 3 kg/m3
mass density (283.49 K, 60000 kPa, x2 = 0.4436): 783 ± 3 kg/m3
mass density (283.49 K, 80000 kPa, x2 = 0.4436): 792 ± 3 kg/m3
mass density (283.49 K, 100000 kPa, x2 = 0.4436): 801 ± 3 kg/m3
mass density (283.52 K, 100 kPa, x2 = 0.2297): 752 ± 3 kg/m3
mass density (283.52 K, 1000 kPa, x2 = 0.2297): 753 ± 3 kg/m3
mass density (283.52 K, 5000 kPa, x2 = 0.2297): 755 ± 3 kg/m3
mass density (283.52 K, 10000 kPa, x2 = 0.2297): 759 ± 3 kg/m3
mass density (283.52 K, 20000 kPa, x2 = 0.2297): 765 ± 3 kg/m3
mass density (283.52 K, 30000 kPa, x2 = 0.2297): 771 ± 3 kg/m3
mass density (283.52 K, 40000 kPa, x2 = 0.2297): 776 ± 3 kg/m3
mass density (283.53 K, 60000 kPa, x2 = 0.2297): 786 ± 3 kg/m3
mass density (283.53 K, 80000 kPa, x2 = 0.2297): 796 ± 3 kg/m3
mass density (283.54 K, 100000 kPa, x2 = 0.2297): 804 ± 3 kg/m3
mass density (283.57 K, 1000 kPa, x2 = 0.7841): 743 ± 3 kg/m3
mass density (283.58 K, 100 kPa, x2 = 0.7841): 742 ± 3 kg/m3
mass density (283.59 K, 5000 kPa, x2 = 0.7841): 745 ± 3 kg/m3
mass density (283.6 K, 10000 kPa, x2 = 0.7841): 749 ± 3 kg/m3
mass density (283.61 K, 100 kPa, x2 = 0.6433): 745 ± 3 kg/m3
mass density (283.61 K, 1000 kPa, x2 = 0.6433): 745 ± 3 kg/m3
mass density (283.61 K, 20000 kPa, x2 = 0.7841): 755 ± 3 kg/m3
mass density (283.61 K, 30000 kPa, x2 = 0.7841): 761 ± 3 kg/m3
mass density (283.61 K, 40000 kPa, x2 = 0.7841): 767 ± 3 kg/m3
mass density (283.61 K, 60000 kPa, x2 = 0.7841): 777 ± 3 kg/m3
mass density (283.61 K, 80000 kPa, x2 = 0.7841): 787 ± 3 kg/m3
mass density (283.61 K, 100000 kPa, x2 = 0.7841): 795 ± 3 kg/m3
mass density (283.62 K, 5000 kPa, x2 = 0.6433): 748 ± 3 kg/m3
mass density (283.62 K, 10000 kPa, x2 = 0.6433): 752 ± 3 kg/m3
mass density (283.62 K, 20000 kPa, x2 = 0.6433): 758 ± 3 kg/m3
mass density (283.62 K, 30000 kPa, x2 = 0.6433): 764 ± 3 kg/m3
mass density (283.62 K, 40000 kPa, x2 = 0.6433): 770 ± 3 kg/m3
mass density (283.62 K, 60000 kPa, x2 = 0.6433): 780 ± 3 kg/m3
mass density (283.62 K, 80000 kPa, x2 = 0.6433): 789 ± 3 kg/m3
mass density (283.62 K, 100000 kPa, x2 = 0.6433): 798 ± 3 kg/m3
mass density (293.17 K, 100 kPa, x2 = 0): 749 ± 3 kg/m3
mass density (293.18 K, 1000 kPa, x2 = 0): 750 ± 3 kg/m3
mass density (293.19 K, 5000 kPa, x2 = 0): 753 ± 3 kg/m3
mass density (293.19 K, 10000 kPa, x2 = 0): 756 ± 3 kg/m3
mass density (293.19 K, 20000 kPa, x2 = 0): 763 ± 3 kg/m3
mass density (293.19 K, 30000 kPa, x2 = 0): 769 ± 3 kg/m3
mass density (293.19 K, 40000 kPa, x2 = 0): 774 ± 3 kg/m3
mass density (293.19 K, 50000 kPa, x2 = 0): 780 ± 3 kg/m3
mass density (293.19 K, 70000 kPa, x2 = 0): 789 ± 3 kg/m3
mass density (293.19 K, 80000 kPa, x2 = 0): 794 ± 3 kg/m3
mass density (293.19 K, 90000 kPa, x2 = 0): 798 ± 3 kg/m3
mass density (293.19 K, 100000 kPa, x2 = 0): 802 ± 3 kg/m3
mass density (293.2 K, 60000 kPa, x2 = 0): 785 ± 3 kg/m3
mass density (293.43 K, 10000 kPa, x2 = 0.4436): 749 ± 3 kg/m3
mass density (293.43 K, 20000 kPa, x2 = 0.4436): 755 ± 3 kg/m3
mass density (293.43 K, 30000 kPa, x2 = 0.2297): 765 ± 3 kg/m3
mass density (293.43 K, 30000 kPa, x2 = 0.4436): 761 ± 3 kg/m3
mass density (293.43 K, 40000 kPa, x2 = 0.2297): 771 ± 3 kg/m3
mass density (293.43 K, 40000 kPa, x2 = 0.4436): 767 ± 3 kg/m3
mass density (293.43 K, 60000 kPa, x2 = 0.2297): 781 ± 3 kg/m3
mass density (293.43 K, 60000 kPa, x2 = 0.4436): 778 ± 3 kg/m3
mass density (293.43 K, 80000 kPa, x2 = 0.4436): 787 ± 3 kg/m3
mass density (293.43 K, 100000 kPa, x2 = 0.4436): 796 ± 3 kg/m3
mass density (293.44 K, 100 kPa, x2 = 0.4436): 741 ± 3 kg/m3
mass density (293.44 K, 1000 kPa, x2 = 0.4436): 742 ± 3 kg/m3
mass density (293.44 K, 5000 kPa, x2 = 0.4436): 745 ± 3 kg/m3
mass density (293.44 K, 20000 kPa, x2 = 0.2297): 759 ± 3 kg/m3
mass density (293.44 K, 80000 kPa, x2 = 0.2297): 790 ± 3 kg/m3
mass density (293.44 K, 100000 kPa, x2 = 0.2297): 799 ± 3 kg/m3
mass density (293.45 K, 100 kPa, x2 = 0.2297): 745 ± 3 kg/m3
mass density (293.45 K, 1000 kPa, x2 = 0.2297): 746 ± 3 kg/m3
mass density (293.45 K, 5000 kPa, x2 = 0.2297): 749 ± 3 kg/m3
mass density (293.45 K, 10000 kPa, x2 = 0.2297): 752 ± 3 kg/m3
mass density (293.51 K, 100000 kPa, x2 = 0.6433): 793 ± 3 kg/m3
mass density (293.52 K, 100 kPa, x2 = 0.6433): 738 ± 3 kg/m3
mass density (293.52 K, 1000 kPa, x2 = 0.6433): 738 ± 3 kg/m3
mass density (293.52 K, 5000 kPa, x2 = 0.6433): 741 ± 3 kg/m3
mass density (293.52 K, 10000 kPa, x2 = 0.6433): 745 ± 3 kg/m3
mass density (293.52 K, 20000 kPa, x2 = 0.6433): 752 ± 3 kg/m3
mass density (293.52 K, 30000 kPa, x2 = 0.6433): 758 ± 3 kg/m3
mass density (293.52 K, 40000 kPa, x2 = 0.6433): 764 ± 3 kg/m3
mass density (293.52 K, 60000 kPa, x2 = 0.6433): 774 ± 3 kg/m3
mass density (293.52 K, 80000 kPa, x2 = 0.6433): 784 ± 3 kg/m3
mass density (293.53 K, 60000 kPa, x2 = 0.7841): 772 ± 3 kg/m3
mass density (293.53 K, 80000 kPa, x2 = 0.7841): 781 ± 3 kg/m3
mass density (293.53 K, 100000 kPa, x2 = 0.7841): 790 ± 3 kg/m3
mass density (293.54 K, 100 kPa, x2 = 0.7841): 735 ± 3 kg/m3
mass density (293.54 K, 1000 kPa, x2 = 0.7841): 735 ± 3 kg/m3
mass density (293.54 K, 5000 kPa, x2 = 0.7841): 738 ± 3 kg/m3
mass density (293.54 K, 10000 kPa, x2 = 0.7841): 742 ± 3 kg/m3
mass density (293.54 K, 20000 kPa, x2 = 0.7841): 749 ± 3 kg/m3
mass density (293.54 K, 30000 kPa, x2 = 0.7841): 755 ± 3 kg/m3
mass density (293.54 K, 40000 kPa, x2 = 0.7841): 761 ± 3 kg/m3
mass density (303.04 K, 30000 kPa, x2 = 0): 762 ± 3 kg/m3
mass density (303.04 K, 100000 kPa, x2 = 0): 797 ± 3 kg/m3
mass density (303.05 K, 100 kPa, x2 = 0): 742 ± 3 kg/m3
mass density (303.05 K, 1000 kPa, x2 = 0): 743 ± 3 kg/m3
mass density (303.05 K, 5000 kPa, x2 = 0): 746 ± 3 kg/m3
mass density (303.05 K, 20000 kPa, x2 = 0): 756 ± 3 kg/m3
mass density (303.05 K, 50000 kPa, x2 = 0): 774 ± 3 kg/m3
mass density (303.05 K, 60000 kPa, x2 = 0): 779 ± 3 kg/m3
mass density (303.05 K, 70000 kPa, x2 = 0): 784 ± 3 kg/m3
mass density (303.05 K, 80000 kPa, x2 = 0): 789 ± 3 kg/m3
mass density (303.05 K, 90000 kPa, x2 = 0): 793 ± 3 kg/m3
mass density (303.06 K, 10000 kPa, x2 = 0): 749 ± 3 kg/m3
mass density (303.06 K, 40000 kPa, x2 = 0): 768 ± 3 kg/m3
